Assay results as given in publication PMC6968685 (Journal of Enzyme Inhibition and Medicinal Chemistry, 2020).
Structures can show the parent of a compound that is named as a salt.

Tests used:
[1] = test system: P. falciparum CQ-resistant strain W2; experiment: In vitro antiplasmodial activity, SYBR Green I fluorescence-based method, strain W2; type: cell-based; details: for IC50: Plasmodium falciparum, chloroquine-resistant strain W2, 48 h incubation, read-out: P. falciparum strains IC50 values, W2; for Selectivity index HepG2/W2: SI = CC50 HepG2 / IC50 P. falciparum W2
Description: (§1) The in vitro antiplasmodial activities were tested over concentrations ranging from […] against culture-adapted P. falciparum reference strains 3D7 and W2. […] The parasites were cultivated in RPMI medium (Sigma-Aldrich, Lyon, France) supplemented with 0.5% Albumax I (Life Technologies Corporation, Paisley, UK), hypoxanthine (Sigma-Aldrich), and gentamicin (Sigma-Aldrich) with human erythrocytes and were incubated at 37 °C in a candle jar, as described previously[43] .The P. falciparum drug susceptibility test was carried out in 96-well flat-bottom sterile plates in a final volume of 250 µl. After 48 h incubation period with the drugs, quantities of DNA in treated and control cultures of parasites in human erythrocytes were quantified using the SYBR Green I (Sigma-Aldrich) fluorescence-based method[44]^,[45]. Briefly, after incubation, plates were frozen at −20 °C until use. Plates were then thawed for 2 h at room temperature, and 100 µl of each homogenised culture was transferred to a well of a 96-well flat-bottom sterile black plate (Nunc, Inc., Rochester, NY) that contained 100 µl of the SYBR Green I lysis buffer (2xSYBR Green, 20 mM Tris base pH 7.5, 5 mM EDTA, 0.008% w/v saponin, 0.08% w/v Triton X-100). […] Plates were incubated for 1 h at room temperature and then read on a fluorescence plate reader (Tecan, Grödig, Austria) using excitation and emission wavelengths of 485 and 535 nm, respectively. IC50 values were calculated by non-linear regression analysis of data from dose-response curves, using TableCurve 2D version 5.0 software (Systat Software, San Jose, CA). IC50 values are reported as means calculated from three independent experiments.

[2] = test system: P. falciparum CQ-sensitive strain 3D7; experiment: In vitro antiplasmodial activity, SYBR Green I fluorescence-based method, strain 3D7; type: cell-based; details: for IC50: Plasmodium falciparum, chloroquine-sensitive strain 3D7, 48 h incubation, read-out: P. falciparum strains IC50 values, 3D7; for Selectivity index HepG2/3D7: SI = CC50 HepG2 / IC50 P. falciparum 3D7
Description: as §1

[3] = test system: T. brucei brucei AnTat 1.9; experiment: In vitro antitrypanosomal activity, Alamar Blue assay; type: cell-based; details: for Selectivity index HepG2/Tryp.: SI = CC50 HepG2 / IC50 Trypanosoma brucei brucei; for IC50: Trypanosoma brucei, slender bloodstream trypomastigotes, AnTat 1.9 strain, read-out: Trypanosoma brucei brucei IC50 values, Trypanos Antat 1.9
Description: The effects of the tested compounds on the growth of T. brucei brucei were assessed using an Alamar Blue® assay described by Räz et al.[49] T. brucei brucei AnTat 1.9 (IMTA, Antwerpen, Belgium) was cultured in MEM with Earle’s salts, supplemented according to the protocol of Baltz et al.[50] with the following modifications: 0.5 mM mercaptoethanol (Sigma Aldrich), 1.5 mM L-cysteine (Sigma Aldrich), 0.05 mM bathocuproine sulphate (Sigma Aldrich), and 20% heat-inactivated horse serum (Gibco, France) at 37 °C and 5% CO2. Samples were incubated at an average density of 2000 parasites/well in sterile 96-wells plates (Fisher, France) with various concentrations of compounds dissolved in 0.9% NaCl. All doses were tested in duplicate. Appropriate controls treated with solvents 0.9% NaCl or DMSO or with suramin, pentamidine, eflornithine, and fexinidazole (reference drugs purchased from Sigma Aldrich and Fluorochem, UK) were added to each set of experiments. After 69 h incubation period at 37 °C, 10 µl of the viability marker Alamar Blue (Fisher) was added to each well, and the plates were incubated for 5 h. The plates were read in a PerkinElmer ENSPIRE (Germany) microplate reader using an excitation wavelength of 530 nm and an emission wavelength of 590 nm. […] IC50 values were calculated using a nonlinear regression analysis of dose-response curves performed using GraphPad Prism software (La Jolla, CA). IC50 values were calculated from three independent experiments.

[4] = test system: L. donovani (MHOM/IN/00/DEVI) promastigotes; experiment: In vitro antileishmanial activity, MTT assay on promastigotes; type: cell-based; details: Leishmania donovani, 72 h incubation, ≥10 = no activity noted at the highest concentration tested
Description: L. donovani (MHOM/IN/00/DEVI) used in this study was provided by the CNR Leishmania (Montpellier, France). The effects of the tested compounds on the growth of L. donovani (MHOM/IN/00/DEVI) promastigotes were assessed by MTT assay. Briefly, promastigotes in log-phase in Schneider’s medium supplemented with 20% foetal calf serum (FCS), 2 mM L-glutamine and antibiotics (100 U/ml penicillin and 100 µg/ml streptomycin), were incubated at an average density of 10^6 parasites/ml in sterile 96-well plates with various concentrations of compounds dissolved in DMSO (final concentration less than 0.5% v/v), in duplicate. Appropriate controls treated with DMSO and amphotericin B (reference drug purchased from Sigma-Aldrich) were added to each set of experiments. After 72 h incubation period at 27 °C, parasite metabolic activity was determined. Each well was microscopically examined for precipitate formation. To each well was added 20 µl of 5 mg/ml MTT [3–(4,5-dimethylthiazol-2-yl)-2,5-diphenyltetrazolium bromide)] solution followed by 4 h incubation time. The enzyme reaction was stopped by addition of 100 µl of 50% isopropanol/10% sodium dodecyl sulfate. Plates were vigorously shaken (300 rpm) for 10 min, and the absorbance was measured at 570 nm in a BIO-TEK ELx808 Absorbance Microplate Reader. […] IC50 of the parasite’s growth (half maximal inhibitory concentration or IC50 values) were then calculated from the obtained experimental results using a previously described regression programme.

[5] = Cytotoxicity evaluation, MTT; type: cell-based, human; details: human
Description: These cells are a commonly used human hepatocarcinoma-derived cell line that has characteristics similar to those of primary hepatocytes. These cells express many hepatocyte-specific metabolic enzymes, thus enabling the cytotoxicity of tested product metabolites to be evaluated. […] Duplicate assays were performed for each sample. Each well was microscopically examined for precipitate formation before the medium was aspirated from the wells. After aspiration, 100 µl of MTT solution (0.5 mg/ml in medium without FCS) were then added to each well. […] The MTT solution was removed, and DMSO (100 µl) was added to dissolve the resulting blue formazan crystals. Plates were shaken vigorously (300 rpm) for 5 min. The absorbance was measured at 570 nm with 630 nm as reference wavelength in a BIO-TEK ELx808 Absorbance Microplate Reader. DMSO was used as blank and doxorubicin (Sigma Aldrich) as positive control. Cell viability was calculated as percentage of control (cells incubated without compound). The CC50 was determined from the dose-response curve using the TableCurve 2D version 5.0 software (Systat Software, San Jose, CA)

For `CN(C)CCCCNCc1ccc(-c2cc(-c3ccc(CNCCCCN(C)C)cc3)c3ccccc3n2)cc1` (as salt: (cooh)2) [Compound 1a, 2,4-Bis{4-[(4-dimethylaminobutyl)aminomethyl]phenyl}quinoline], the melting point was 258 to 260 °C.

With `CN(C)CCCCNCc1ccc(-c2cc3ccccc3c(-c3ccc(CNCCCCN(C)C)cc3)n2)cc1` [Compound 2a, 1,3-Bis{4-[(4-dimethylaminobutyl)aminomethyl]phenyl}isoquinoline] the IC50 [1] was 6.23 ± 0.8 µM, the “Selectivity index HepG2/W2” value [1] was 1.33 and the IC50 [2] was 1.74 ± 0.36 µM. For the same compound, the “Selectivity index HepG2/3D7” value [2] was 4.78, the “Selectivity index HepG2/Tryp.” value [3] was 12.98 and the IC50 [3] was 0.64 ± 0.163 µM. For the same compound, the IC50 [4] was ≥ 10 µM and the CC50 at 72 h [5] was 8.31 ± 1 µM.

For `COc1ccc2nc(-c3ccc(CNCCN4CCN(C)CC4)cc3)nc(-c3ccc(CNCCN4CCN(C)CC4)cc3)c2c1` [Compound 3l, 6-Methoxy-2,4-bis{4-[(2–(4-methylpiperazin-1-yl)ethyl)aminomethyl]phenyl}quinazoline], the IC50 [1] was 1.34 ± 0.29 µM, the “Selectivity index HepG2/W2” value [1] was 4.87 and the IC50 [2] was 1.81 ± 0.25 µM. The “Selectivity index HepG2/3D7” value [2] was 3.61, the “Selectivity index HepG2/Tryp.” value [3] was 11.06 and the IC50 [3] was 0.59 ± 0.057 µM. The IC50 [4] was ≥ 10 µM and the CC50 at 72 h [5] was 6.53 ± 0.6 µM.

In the case of `COc1ccc2cc(-c3ccc(CNCCCN4CCN(C)CC4)cc3)nc(-c3ccc(CNCCCN4CCN(C)CC4)cc3)c2c1` [Compound 2h, 7-Methoxy-1,3-bis{4-[(3–(4-methylpiperazin-1-yl)propyl)aminomethyl]phenyl}isoquinoline], the IC50 [1] is reported as 1.28 ± 0.34 µM, the “Selectivity index HepG2/W2” value [1] is reported as 5.61 and the IC50 [2] is reported as 1.81 ± 0.19 µM. For the same compound, the “Selectivity index HepG2/3D7” value [2] was 3.97, the “Selectivity index HepG2/Tryp.” value [3] was 8.86 and the IC50 [3] was 0.81 ± 0.255 µM. For the same compound, the IC50 [4] was ≥ 10 µM and the CC50 at 72 h [5] was 7.18 ± 0.6 µM.

With `COc1ccc2c(-c3ccc(CNCCCCN4CCN(C)CC4)cc3)nc(-c3ccc(CNCCCCN4CCN(C)CC4)cc3)nc2c1` [Compound 3p, 7-Methoxy-2,4-bis{4-[(4–(4-methylpiperazin-1-yl)butyl)aminomethyl]phenyl}quinazoline] the IC50 [1] was 5.08 ± 0.48 µM, the “Selectivity index HepG2/W2” value [1] was 3.41 and the IC50 [2] was 6.56 ± 1.44 µM. For the same compound, the “Selectivity index HepG2/3D7” value [2] was 2.64, the “Selectivity index HepG2/Tryp.” value [3] was 17.01 and the IC50 [3] was 1.02 ± 0.194 µM. For the same compound, the IC50 [4] was ≥ 10 µM and the CC50 at 72 h [5] was 17.4 ± 1.2 µM.

In the case of `COc1ccc2c(-c3ccc(CNCCCCN(C)C)cc3)cc(-c3ccc(CNCCCCN(C)C)cc3)nc2c1` [Compound 1m, 7-Methoxy-2,4-bis{4-[(4-dimethylaminobutyl)aminomethyl]phenyl}quinoline], the IC50 [1] is reported as > 40 µM, the IC50 [2] is reported as 8.98 ± 0.36 µM and the “Selectivity index HepG2/3D7” value [2] is reported as 0.60. The “Selectivity index HepG2/Tryp.” value [3] was 5.00, the IC50 [3] was 1.08 ± 0.068 µM and the IC50 [4] was ≥ 10 µM. It also gave a CC50 at 72 h [5] of 5.4 ± 0.3 µM.

For `COc1ccc2c(-c3ccc(CNCCN(C)C)cc3)nc(-c3ccc(CNCCN(C)C)cc3)nc2c1` [Compound 3o, 7-Methoxy-2,4-bis{4-[(2-dimethylaminoethyl)aminomethyl]phenyl}quinazoline], the IC50 [1] was 0.99 ± 0.09 µM, the “Selectivity index HepG2/W2” value [1] was 1.15 and the IC50 [2] was 0.61 ± 0.03 µM. The “Selectivity index HepG2/3D7” value [2] was 1.87, the “Selectivity index HepG2/Tryp.” value [3] was 1.52 and the IC50 [3] was 0.75 ± 0.121 µM. The IC50 [4] was ≥ 10 µM and the CC50 at 72 h [5] was 1.14 ± 0.4 µM.

For `COc1ccc2nc(-c3ccc(CNCCCN(C)C)cc3)cc(-c3ccc(CNCCCN(C)C)cc3)c2c1` [Compound 1j, 6-Methoxy-2,4-bis{4-[(3-dimethylaminopropyl)aminomethyl]phenyl}quinoline], the IC50 [1] was 4.21 ± 0.31 µM, the “Selectivity index HepG2/W2” value [1] was 0.59 and the IC50 [2] was 2.65 ± 0.18 µM. The “Selectivity index HepG2/3D7” value [2] was 0.94, the “Selectivity index HepG2/Tryp.” value [3] was 4.03 and the IC50 [3] was 0.62 ± 0.07 µM. The IC50 [4] was ≥ 10 µM and the CC50 at 72 h [5] was 2.5 ± 0.2 µM.

In the case of `CN1CCN(CCCCNCc2ccc(-c3cc4ccccc4c(-c4ccc(CNCCCCN5CCN(C)CC5)cc4)n3)cc2)CC1` [Compound 2c, 1,3-Bis{4-[(4–(4-methylpiperazin-1-yl)butyl)aminomethyl]phenyl}isoquinoline], the IC50 [1] is reported as 4.42 ± 0.56 µM, the “Selectivity index HepG2/W2” value [1] is reported as 1.13 and the IC50 [2] is reported as 1.96 ± 0.58 µM. For the same compound, the “Selectivity index HepG2/3D7” value [2] was 2.54, the “Selectivity index HepG2/Tryp.” value [3] was 4.53 and the IC50 [3] was 1.1 ± 0.318 µM. The IC50 [4] was ≥ 10 µM and the CC50 at 72 h [5] was 4.98 ± 0.5 µM.

For `COc1ccc2c(-c3ccc(CNCCCN4CCN(C)CC4)cc3)nc(-c3ccc(CNCCCN4CCN(C)CC4)cc3)nc2c1` [Compound 3q, 7-Methoxy-2,4-bis{4-[(3–(4-methylpiperazin-1-yl)propyl)aminomethyl]phenyl}quinazoline], the IC50 [1] was 11.5 ± 1.05 µM, the “Selectivity index HepG2/W2” value [1] was 0.11 and the IC50 [2] was 10.4 ± 0.58 µM. For the same compound, the “Selectivity index HepG2/3D7” value [2] was 0.12, the “Selectivity index HepG2/Tryp.” value [3] was 0.74 and the IC50 [3] was 1.71 ± 0.145 µM. For the same compound, the IC50 [4] was ≥ 10 µM and the CC50 at 72 h [5] was 1.27 ± 0.5 µM.

For `COc1ccc2c(-c3ccc(CNCCCCN4CCN(C)CC4)cc3)cc(-c3ccc(CNCCCCN4CCN(C)CC4)cc3)nc2c1` [Compound 1o, 7-Methoxy-2,4-bis{4-[(4–(4-methylpiperazin-1-yl)butyl)aminomethyl]phenyl}quinoline], the IC50 [1] was 2.26 ± 0.48 µM, the “Selectivity index HepG2/W2” value [1] was 1.47 and the IC50 [2] was 2.41 ± 0.08 µM. The “Selectivity index HepG2/3D7” value [2] was 1.38, the “Selectivity index HepG2/Tryp.” value [3] was 2.96 and the IC50 [3] was 1.12 ± 0.118 µM. The IC50 [4] was ≥ 10 µM and the CC50 at 72 h [5] was 3.32 ± 0.5 µM.

For `COc1ccc2nc(-c3ccc(CNCCCN4CCN(C)CC4)cc3)cc(-c3ccc(CNCCCN4CCN(C)CC4)cc3)c2c1` [Compound 1l, 6-Methoxy-2,4-bis{4-[(3–(4-methylpiperazin-1-yl)propyl)aminomethyl]phenyl}quinoline], the IC50 [1] was 4.51 ± 0.71 µM, the “Selectivity index HepG2/W2” value [1] was 0.23 and the IC50 [2] was 1.8 ± 0.2 µM. The “Selectivity index HepG2/3D7” value [2] was 0.57, the “Selectivity index HepG2/Tryp.” value [3] was 0.66 and the IC50 [3] was 1.54 ± 0.164 µM. For the same compound, the IC50 [4] was ≥ 10 µM and the CC50 at 72 h [5] was 1.02 ± 0.1 µM.
